In US10947222B2, “Indole derivatives useful as inhibitors of diacylglyceride O-acyltransferase 2” (Merck Sharp & Dohme Corp., priority 2016, dated 2021):

Target: human DGAT2 (hDGAT2) (Homo sapiens (Human), UniProt Q96PD7)
Test: DGAT2 enzymatic activity assay (triolein formation, LC/MS/MS)
Assay type: biochemical
Conditions: Sf-9 membrane prep expressing hDGAT2; 25 μM diolein, 10 μM oleoyl-CoA; triolein by LC/MS/MS
Method: Sf-9 insect cells were maintained in Grace's insect cell culture medium with 10% heated-inactivated fetal bovine serum, 1% Pluronic F-68 and 0.14 μg/ml Kanamycine sulfate in Erlenmeyer flasks at 28° C. in a shaker incubator. After infection with untagged baculovirus expressing human DGAT2 (hDGAT2) at multiplicity of infection (MOI) 0.1 for 48 hours, cells were harvested. Cell pellets were suspended in buffer containing 10 mM Tris-HCl (pH 7.5), 1 mM EDTA (pH 8.0), 250 mM sucrose and Complete Protease Inhibitor Cocktail (Roche Diagnostics Corp., Indianapolis, Ill.), and sonicated on ice. Membrane fractions were isolated by ultracentrifugation (100,000×g pellet), resuspended in the same buffer, and frozen (−80° C.) for later use. The protein concentration was determined with the BCA Protein Assay kit (Pierce Biotechnology Inc., Rockford, Ill.). Expression of protein levels was analyzed by immunoblotting with goat polyclonal DGAT2 antibody C-15 and donkey anti-goat IgG HRP (Santa Cruz Biotechnology, Inc., Santa Cruz, Calif.) followed by detection with ECL reagent (GE Healthcare, Piscataway, N.J.).
LC/MS/MS analyses were performed using Thermal Fisher's LX4-TSQ Vantage system. This system consists of an Agilent binary high-performance liquid chromatography (HPLC) pumps and a TSQ Vantage triple quadrupole MS/MS instrument. For each sample, 2 μL samples from the top organic layer of in-plate liquid-liquid extraction were injected onto a Thermo Betabasic C4 column (2.1 mm×20 mm, 5 μm particle size). The samples were then eluted using the following conditions; mobile phase: methanol/water with 0.1% ammonium format=92/8 (v/v), flow rate: 1 mL/min, temperature: 25 C. Data was acquired in positive mode using a heated electrospray ionization (HESI) interface. The operational parameters for the TSQ Vantage MS/MS instrument were a spray voltage of 3000 V, capillary temperature of 280° C., vaporizer temperature 400° C., shealth gas 60 arbitrary unit, Aux gas 40 arbitrary units, S-lens 113 and collision gas 0.16 Pascals. […] (SRM) chromatograms of triolein (Q1:902.9>Q3:602.3) and internal standard (Q1:902.9>Q3:602.3) were collected for 40 sec. The peak area was integrated by Xcalibur Quan software. The ratio between the triolein generated in the reaction and spiked in internal standard was used to generate percentage inhibition and IC50 values. Compound percentage inhibition was calculated by the following formula: Inhibition %/=1−[(compound response−low control)/(high control−low control)]×100%. Potent compounds were titrated and IC50 were calculated by 4 parameter sigmoidal curve fitting formula.
DGAT2 activity was determined by measuring the amount of enzymatic product triolein (1,2,3-Tri(cis-9-octadecenoyl)glycerol) using the membrane prep mentioned above. The assay was carried out in deep well 384 plates in a final volume of 40 μL at rt. The assay mixture contained the following: assay buffer (100 mM Tris.Cl, pH 7.0, 20 mM MgCl2, 5% ethanol), 25 μM of diolein, 10 μM of oleoyl-CoA and 10 ng/μL of DGAT2 membrane.

human DGAT2 (hDGAT2), sequence (Q96PD7 whole entry): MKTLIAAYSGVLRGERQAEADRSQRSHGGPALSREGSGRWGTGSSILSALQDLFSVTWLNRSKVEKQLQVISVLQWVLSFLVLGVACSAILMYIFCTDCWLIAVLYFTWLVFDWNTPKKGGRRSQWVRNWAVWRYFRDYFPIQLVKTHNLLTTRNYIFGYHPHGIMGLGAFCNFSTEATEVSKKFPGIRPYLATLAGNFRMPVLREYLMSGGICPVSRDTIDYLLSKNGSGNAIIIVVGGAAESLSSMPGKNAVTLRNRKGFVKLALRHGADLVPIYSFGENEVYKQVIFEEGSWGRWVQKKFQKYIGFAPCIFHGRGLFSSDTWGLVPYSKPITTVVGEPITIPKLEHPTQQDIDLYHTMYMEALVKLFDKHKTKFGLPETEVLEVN

Structure (SMILES)	IC50 [µM]
O=C(NC1CCS(=O)(=O)C1)c1ccc2c(-c3ccccc3Cl)cn(-c3ccc(F)cc3)c2c1 (racemic) [Example 2, 3-(2-Chlorophenyl)-N-(1,1-dioxidotetrahydrothiophen-3-yl)-1-(4-fluorophenyl)-1H-indole-6-carboxamide]	0.066
COCC(C)NC(=O)c1ccc2c(-c3ccccc3Cl)cn(-c3ccc(F)cc3)c2c1 (racemic) [Example 3, 3-(2-chlorophenyl)-1-(4-fluorophenyl)-N-(1-methoxypropan-2-yl)-1H-indole-6-carboxamide (racemic)]	0.344
O=C(NC1CCS(=O)(=O)C1)c1ccc2c(-c3ccccn3)cn(-c3ccc(F)cc3)c2c1 (racemic) [Example 22, N-(1,1-dioxidotetrahydrothiophen-3-yl)-1-(4-fluorophenyl)-3-(pyridin-2-yl)-1H-indole-6-carboxamide (racemic)]	0.664
Cc1ccnc(-c2cn(-c3ccc(F)cc3)c3cc(C(=O)NC4CCS(=O)(=O)C4)ccc23)c1 (racemic) [Example 23, N-(1,1-dioxidotetrahydrothiophen-3-yl)-1-(4-fluorophenyl)-3-(4-methylpyridin-2-yl)-1H-indole-6-carboxamide (racemic)]	0.117
Cc1ccnc(-c2cn(-c3ccc(F)cc3)c3cc(C(=O)NC4(C)CCS(=O)(=O)C4)ccc23)c1 (racemic) [Example 24, 1-(4-fluorophenyl)-N-(3-methyl-1,1-dioxidotetrahydrothiophen-3-yl)-3-(4-methylpyridin-2-yl)-1H-indole-6-carboxamide (racemic)]	0.571
CC1(NC(=O)c2ccc3c(-c4cncc(OC(F)F)c4)cn(-c4ccc(F)cc4)c3c2)CCS(=O)(=O)C1 (racemic) [Example 25, 3-(5-(difluoromethoxy)pyridin-3-yl)-1-(4-fluorophenyl)-N-(3-methyl-1,1-dioxidotetrahydrothiophen-3-yl)-1H-indole-6-carboxamide (racemic)]	0.00077
Cc1c(-c2cccc(OC(F)F)c2)c2ccc(C(=O)NC3(C)CCS(=O)(=O)C3)cc2n1-c1ccc(F)cc1 (racemic) [Example 28, 3-(3-(difluoromethoxy)phenyl)-1-(4-fluorophenyl)-2-methyl-N-(3-methyl-1,1-dioxidotetrahydrothiophen-3-yl)-1H-indole-6-carboxamide (racemic)]	0.017
Cc1cccc(-c2cn(-c3ccc(F)cc3)c3cc(C(=O)NC4CCS(=O)(=O)C4)ccc23)c1 (racemic) [Example 34, N-(1,1-dioxidotetrahydrothiophen-3-yl)-1-(4-fluorophenyl)-3-(3-methylphenyl)-1H-indole-6-carboxamide (racemic)]	0.013
O=C(NC1CCS(=O)(=O)C1)c1ccc2c(-c3cccc(-c4ccccc4)c3)cn(-c3ccc(F)cc3)c2c1 (racemic) [Example 36, 3-biphenyl-3-yl-N-(1,1-dioxidotetrahydrothiophen-3-yl)-1-(4-fluorophenyl)-1H-indole-6-carboxamide (racemic)]	0.061
CC(=O)Nc1cccc(-c2cn(-c3ccc(F)cc3)c3cc(C(=O)NC4CCS(=O)(=O)C4)ccc23)c1 (racemic) [Example 37, 3-[3-(acetylamino)phenyl]-N-(1,1-dioxidotetrahydrothiophen-3-yl)-1-(4-fluorophenyl)-1H-indole-6-carboxamide (racemic)]	0.163
O=C(NC1CCS(=O)(=O)C1)c1ccc2c(-c3cccc(-n4cccn4)c3)cn(-c3ccc(F)cc3)c2c1 (racemic) [Example 38, N-(1,1-dioxidotetrahydrothiophen-3-yl)-1-(4-fluorophenyl)-3-[3-(1H-pyrazol-1-yl)phenyl]-1H-indole-6-carboxamide (racemic)]	0.015
O=C(NC1CCS(=O)(=O)C1)c1ccc2c(-c3cccc(OC(F)F)c3)cn(-c3ccc(F)cc3)c2c1 (racemic) [Example 39, 3-[3-(difluoromethoxy)phenyl]-N-(1,1-dioxidotetrahydrothiophen-3-yl)-1-(4-fluorophenyl)-1H-indole-6-carboxamide (racemic)]	0.0011
O=C(NC1CCS(=O)(=O)C1)c1ccc2c(-c3cc(Cl)cc(Cl)c3)cn(-c3ccc(F)cc3)c2c1 (racemic) [Example 41, 3-(3,5-dichlorophenyl)-N-(1,1-dioxidotetrahydrothiophen-3-yl)-1-(4-fluorophenyl)-1H-indole-6-carboxamide (racemic)]	0.088

More lines, in order of falling IC50, values ahead:

IC50 [µM]	Structure (SMILES)
0.802	Cc1cc(C)nc(-c2cn(-c3ccc(F)cc3)c3cc(C(=O)NC4CCS(=O)(=O)C4)ccc23)c1 (racemic) [Example 20, 3-(4,6-dimethylpyridin-2-yl)-N-(1,1-dioxidotetrahydrothiophen-3-yl)-1-(4-fluorophenyl)-1H-indole-6-carboxamide (racemic)]
0.252	O=C(NC1CCS(=O)(=O)C1)c1ccc2c(-c3cc(Cl)ccn3)cn(-c3ccc(F)cc3)c2c1 (racemic) [Example 21, 3-(4-chloropyridin-2-yl)-N-(1,1-dioxidotetrahydrothiophen-3-yl)-1-(4-fluorophenyl)-1H-indole-6-carboxamide (racemic)]
0.223	COc1ccccc1-c1cn(-c2ccc(F)cc2)c2cc(C(=O)NC3CCS(=O)(=O)C3)ccc12 (racemic) [Example 29, N-(1,1-dioxidotetrahydrothiophen-3-yl)-1-(4-fluorophenyl)-3-(2-methoxyphenyl)-1H-indole-6-carboxamide (racemic)]
0.108	O=C(NC1CCS(=O)(=O)C1)c1ccc2c(-c3ccccc3OC(F)F)cn(-c3ccc(F)cc3)c2c1 (racemic) [Example 42, 3-[2-(difluoromethoxy)phenyl]-N-(1,1-dioxidotetrahydrothiophen-3-yl)-1-(4-fluoropheny)-1H-indole-6-carboxamide (racemic)]
0.101	O=C(NC1CCS(=O)(=O)C1)c1ccc2c(-c3cccc(F)c3)cn(-c3ccc(F)cc3)c2c1 (racemic) [Example 35, N-(1,1-dioxidotetrahydrothiophen-3-yl)-3-(3-fluorophenyl)-1-(4-fluorophenyl)-1H-indole-6-carboxamide (racemic)]
0.028	O=C(NC1CCS(=O)(=O)C1)c1ccc2c(-c3cccc(Cl)c3)cn(-c3ccc(F)cc3)c2c1 (racemic) [Example 31, 3-(3-chlorophenyl)-N-(1,1-dioxidotetrahydrothiophen-3-yl)-1-(4-fluorophenyl)-1H-indole-6-carboxamide (racemic)]
0.026	O=C(NC1CCS(=O)(=O)C1)c1ccc2c(-c3ccccc3F)cn(-c3ccc(F)cc3)c2c1 (racemic) [Example 40, N-(1,1-dioxidotetrahydrothiophen-3-yl)-3-(2-fluorophenyl)-1-(4-fluorophenyl)-1H-indole-6-carboxamide (racemic)]
0.018	O=C(NC1CCS(=O)(=O)C1)c1ccc2c(-c3cccc(C(F)(F)F)c3)cn(-c3ccc(F)cc3)c2c1 (racemic) [Example 30, N-(1,1-dioxidotetrahydrothiophen-3-yl)-1-(4-fluorophenyl)-3-[3-(trifluoromethyl)phenyl]-1H-indole-6-carboxamide (racemic)]
0.0088	CC1(NC(=O)c2ccc3c(-c4ccccc4Cl)cn(-c4ccc(F)cc4)c3c2)CCS(=O)(=O)C1 (racemic) [Example 1, 3-(2-chlorophenyl)-1-(4-fluorophenyl)-N-(3-methyl-1,1-dioxidotetrahydrothiophen-3-yl)-1H-indole-6-carboxamide]
0.004	COc1cccc(-c2cn(-c3ccc(F)cc3)c3cc(C(=O)NC4CCS(=O)(=O)C4)ccc23)c1 (racemic) [Example 33, N-(1,1-dioxidotetrahydrothiophen-3-yl)-1-(4-fluorophenyl)-3-(3-methoxyphenyl)-1H-indole-6-carboxamide (racemic)]
0.0032	COC(=O)c1cccc(-c2cn(-c3ccc(F)cc3)c3cc(C(=O)NC4CCS(=O)(=O)C4)ccc23)c1 (racemic) [Example 32, methyl 3-{6-[(1,1-dioxidotetrahydrothiophen-3-yl)carbamoyl]-1-(4-fluorophenyl)-1H-indol-3-yl}benzoate (racemic)]
